The target in one assay is T1, mutant STAT3 (T456A) (Mus musculus, UniProt P42227, T456A).
T1 construct: A coding region of Mus musculus STAT3 was amplified by PCR using full-length Mus musculus STAT3 cDNA as a template; host or cells: RAW264.7
In words: Pull-down assay with mutant STAT3. The assay is classed as binding. To be noted: compared to the STAT3. The source says: As a method for isolating a protein complex, a pull-down assay is an assay for checking a protein-protein interaction. To identify a protein interacting with MMPP, MMPP was bound to […] epoxy-activated Sepharose 6B (Sigma, St Louis, Mo., United States).
2. Construction of plasmid: A coding region of Mus musculus STAT3 was amplified by PCR using full-length Mus musculus STAT3 cDNA as a template. The purified PCR product was doubly digested with EcoRI and XhoI, and then subcloned into a pcDNA3.1 vector. The pcDNA3.1 plasmid includes a cytomegalovirus promoter, a pUC origin of replication, and an ampicillin-resistant gene. STAT3 (T456A) mutagenesis was performed at Cosmo Genetech Co., Ltd. (Seoul, Korea), and the mutations were systematically checked by sequencing. RAW264.7 cells were seeded in a 24-well plate at a density of 1×10^5 cells/well. The cells were grown for 24 hours to reach 90% confluence, and the cells were infected with the mutant STAT3 (T456A) plasmid (Cosmo Genetech Co., Ltd., Seoul, Korea) using a mixture of the plasmid and lipofectamine in PTI-MEN. The infected cells were treated with LPS (1 μg/mL), and different concentrations of MMPP (1 to 4 μg/mL) for 12 hours. The prepared samples were subjected to Western blotting.
To check the interaction between MMPP and STAT3, a pull-down assay was carried out. MMPP was conjugated to epoxy-activated Sepharose 6B. […]

The subject of another assay is RAW 264.7 cells. Briefly: Nitrite assay (NO generation) in LPS-induced RAW 264.7 cells. It counts as cell-based, mouse. The following applies: LPS (1 µg/mL) and MMPP (0 to 4 µg/mL). As to the method:
6. Nitrite assay: RAW 264.7 cells were added to a 96-well plate at a density of 1×10^4 cells/well, and LPS […] and TNF-α (10 ng/mL) were added or not added for 24 hours in the presence or absence of various concentrations of MMPP. Accumulation of nitrites in a supernatant was analyzed using a nitric oxide assay kit commercially available from iNtRON Biotechnology (Seongnam, Korea).
In Experimental Example 4, a luciferase activity assay was carried out to determine whether MMPP inhibited generation of LPS-induced infective factors in RAW 264.7 cells. RAW 264.7 cells were transiently infected with an iNOS-luciferase construct, treated with LPS (1 μg/mL) alone or a combination of MMPP and LPS, and then activated for 12 hours.

Another assay relates to STAT3. Briefly: STAT3 phosphorylation in LPS-treated RAW 264.7 cells. The assay is classed as cell-based, mouse. As to the method:
12. Western blotting assay: A whole cell lysate, a cytosolic extract, and a nuclear extract were obtained. SDS-PAGE and Western blotting assays were carried out as disclosed in published Documents 1 and 2. Simply speaking, the cells were seeded in a 6-well plate at a density of 5×10^5 cells/well, and cultured for 24 hours. Thereafter, the cells were treated with MMPP or DMSO for 24 hours. After the treatment, the cells were washed twice with PBS, and then lyzed. Proteins of the lyzed cells were separated on 10 to 15% SDS-PAGE. The proteins were transferred to a PVDF membrane, and the PVDF membrane was blocked at room temperature for 2.5 hours in a TB S/T buffer containing 5% skim milk. The membrane to which the proteins were transferred was analyzed using, as primary antibodies, murine monoclonal antibodies against Cdk2, Cdk4, Cdk6, cyclin B1, cyclin D1, cyclin E1, Bcl-2, Bax, caspase-3, caspase-8, STAT3, phspho-STAT3, (3-actin, and histone hl. Expression of the proteins was visualized using a chemiluminescence reagent (Amersham Pharmacia Biotech, Inc., Buckinghamshire, UK), and measured using a digital chemiluminescence imaging system equipped with a CCD camera (Fusion-FX, Fisher BioTech, Ltd., Wembley, Australia). […]

The next assay deals with synoviocytes. Briefly: Anti-inflammatory effect in LPS- or TNF-α-treated synoviocytes. It counts as cell-based, human. To be noted: LPS or TNF-α (10 ng/mL), 24 hours. The source says:
4. Human synoviocyte culture: The research protocol and human tissue cells used in the study were approved by the College of Medicine of Soon Chun Hyang University Medical Center. Cells were obtained from patients with rheumatoid arthritis diagnosed according to the American College of Rheumatology classification criteria revised in 1987. Synovial tissue samples are obtained from knee joints of patients with long-term rheumatoid arthritis (two males and two females, an average age of 65±21.3 years, and an average onset period of 10 years or more). FLS (Fibroblast-like synoviocytes) were cultured as described above. Simply, the FLSs were cultured in a culture dish (Nalge Nunc International, Rochester, N.Y., USA) containing a DMEM culture medium (Gibco Life Technologies) supplemented with […] FBS (Gibco Life Technologies) and 50 U·mL^−1 penicillin/streptomycin. For all cultures and an incubator, the culture was performed at 37° C. in an incubator under a 5% CO2 atmosphere. The medium was replaced every three days. The cells between 5th and 10th passage were used.
In Experimental Example 8, an experiment was performed to check an anti-inflammatory effect of MMPP in synoviocytes treated with LPS and TNF-α.
It was confirmed that the LPS […]- or TNF-α (10 ng/mL)-induced NO and ROS generations (FIG. 9(A)), the iNOS and COX2 expression (FIG. 9(B)), and STAT3 and NF-κB activities (FIGS. 9(C) and (D)) were reduced in the synoviocytes in the case of groups in which the […] were treated with LPS […] or TNF-α (10 ng/mL) in combination with MMPP […] for 24 hours.

The results in this text go back to patent US10265276B2, “Pharmaceutical composition for preventing or treating arthritis or inflammatory disease containing 2-methoxy-4-(3-(4-methoxyphenyl)propyl-1-en-1-yl)phenol as active ingredient” (CHUNGBUK NATIONAL UNIVERSITY INDUSTRY-ACADEMIC COOPERATION …, priority 2015, dated 2019).

The structures appear in SMILES notation.

T1 sequence (P42227 whole entry T456A): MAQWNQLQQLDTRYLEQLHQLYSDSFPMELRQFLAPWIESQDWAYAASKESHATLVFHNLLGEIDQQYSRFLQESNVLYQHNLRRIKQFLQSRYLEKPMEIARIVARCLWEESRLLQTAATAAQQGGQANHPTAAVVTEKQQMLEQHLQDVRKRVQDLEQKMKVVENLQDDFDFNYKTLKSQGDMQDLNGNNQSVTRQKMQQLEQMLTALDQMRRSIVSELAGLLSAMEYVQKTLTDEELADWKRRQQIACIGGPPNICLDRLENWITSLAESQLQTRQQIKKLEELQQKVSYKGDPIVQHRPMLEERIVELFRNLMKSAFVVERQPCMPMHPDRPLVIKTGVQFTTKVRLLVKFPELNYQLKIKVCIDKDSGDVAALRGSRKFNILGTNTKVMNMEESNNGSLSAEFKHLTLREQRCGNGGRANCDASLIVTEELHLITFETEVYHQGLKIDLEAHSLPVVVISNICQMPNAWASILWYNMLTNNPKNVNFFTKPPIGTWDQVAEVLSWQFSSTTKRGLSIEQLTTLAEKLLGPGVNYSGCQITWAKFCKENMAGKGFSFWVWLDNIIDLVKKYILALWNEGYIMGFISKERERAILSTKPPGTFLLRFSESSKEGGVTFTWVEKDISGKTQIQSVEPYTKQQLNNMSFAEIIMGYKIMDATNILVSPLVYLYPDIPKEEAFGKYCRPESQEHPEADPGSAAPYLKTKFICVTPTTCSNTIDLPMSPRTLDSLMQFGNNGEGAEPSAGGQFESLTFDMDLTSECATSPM

`COc1ccc(C/C=C/c2ccc(O)c(OC)c2)cc1` [MMPP, 2-methoxy-4-(3-(4-methoxyphenyl)prop-1-en-1-yl)phenol]: the “binding of MMPP to mutant STAT3 Thr456A” value on mutant STAT3 (T456A) is recorded as “reduced”. In addition, the NO generation entry in the assay on RAW 264.7 cells is reported as “reduced in a concentration-dependent manner”. Besides, the “LPS-induced phosphorylation of STAT3” value with STAT3 is “inhibited”. Also, in the assay with synoviocytes, the “NO and ROS generations” value is listed as “reduced”; the “STAT3 and NF-κB activities” value was “reduced”; the “iNOS and COX2 expression” value is reported as “reduced”.
